# Measured values from patent publication US5780433A (priority 1996, dated 1998).
# “And” between values parts separate entries of the source, which are not always exact repeats. Equal values may be shown once. “Also recorded” adds a separate entry of the source.
# Legend:
# [1] = system: nicotine-stimulated norepinephrine release, hippocampal synaptosomes; conditions: cited from earlier work
# [2] = system: norepinephrine release, hippocampal slice preparations; conditions: cited from earlier work
# [3] = system: nicotine-stimulated [3H]-dopamine release from rat striatal synaptosomes; conditions: read-out: EC50, increase of [3H]-dopamine release; cited from earlier work
# [4] = system: nicotine-stimulated [3H]-dopamine release from rat striatal synaptosomes; format: cell-based
# [5] = system: potassium-stimulated dopamine release; format: cell-based, rat
# [6] = system: nicotine-stimulated norepinephrine release, hippocampal synaptosomes; format: cell-based, rat
# [7] = target: α3β2 nAChRs expressed in Xenopus oocytes (Rattus norvegicus, UniProt P04757+P12390); conditions: read-out: IC50, block of α3β2 nAChRs; cited from earlier work
# [8] = system: other nAChR subunit combinations (α7, α4β2, α2β2, α3β4, α1β1δγ, α4β4); conditions: cited from earlier work
# Chain of α3β2 nAChRs expressed in Xenopus oocytes (P04757 26-499 limits assumed): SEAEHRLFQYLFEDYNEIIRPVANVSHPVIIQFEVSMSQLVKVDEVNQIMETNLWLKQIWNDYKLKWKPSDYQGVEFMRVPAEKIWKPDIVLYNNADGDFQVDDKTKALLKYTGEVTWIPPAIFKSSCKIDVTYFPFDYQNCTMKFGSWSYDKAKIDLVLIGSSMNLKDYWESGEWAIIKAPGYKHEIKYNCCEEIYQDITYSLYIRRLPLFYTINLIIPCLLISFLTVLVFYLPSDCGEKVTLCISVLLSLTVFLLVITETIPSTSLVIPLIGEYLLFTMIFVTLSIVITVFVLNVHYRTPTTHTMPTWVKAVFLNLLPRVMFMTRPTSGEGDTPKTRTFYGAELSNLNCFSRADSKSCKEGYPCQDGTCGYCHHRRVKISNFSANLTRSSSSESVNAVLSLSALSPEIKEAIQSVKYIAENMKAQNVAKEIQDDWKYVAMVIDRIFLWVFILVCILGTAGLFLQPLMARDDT
# Chain of α3β2 nAChRs expressed in Xenopus oocytes (P12390 25-500 limits assumed): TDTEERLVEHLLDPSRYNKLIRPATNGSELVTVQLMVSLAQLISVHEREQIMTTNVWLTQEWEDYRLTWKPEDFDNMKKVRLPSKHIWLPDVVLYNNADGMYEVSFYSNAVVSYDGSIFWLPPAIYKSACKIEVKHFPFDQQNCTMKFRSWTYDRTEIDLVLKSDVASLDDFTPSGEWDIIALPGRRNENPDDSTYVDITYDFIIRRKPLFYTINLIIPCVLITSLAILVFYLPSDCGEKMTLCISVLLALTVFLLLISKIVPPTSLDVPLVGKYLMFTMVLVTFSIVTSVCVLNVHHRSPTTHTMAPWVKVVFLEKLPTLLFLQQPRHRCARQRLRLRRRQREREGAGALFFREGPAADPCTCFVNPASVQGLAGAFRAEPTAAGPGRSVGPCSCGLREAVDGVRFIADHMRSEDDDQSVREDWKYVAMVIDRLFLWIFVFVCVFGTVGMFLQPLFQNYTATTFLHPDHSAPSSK
compound,measurement,setting,value
"CN1CCCC1c1cccnc1.O=C(O)C(O)C(O)C(=O)O (single isomer, unassigned; (-)) [nicotine, (-)Nicotine hydrogen tartrate]",EC50,[1],6500 nM
same,norepinephrine release over baseline,[2],~ 700%
same,EC50,[3],160 nM
"CNC1(C)C2CCC(C2)C1(C)C (centres unmarked) [mecamylamine, reference compound]",block of nicotine-stimulated dopamine release,[4],fully blocked
NC1=N[C@H](O)[C@H]2[C@H]3O[C@]4(O)O[C@@H]([C@@H](O)[C@@]2(N1)[C@@H]4O)[C@]3(O)CO [tetrodotoxin],effect on nicotine-stimulated synaptosomal release of norepinephrine,[1],not affected
same,block of nicotine-stimulated norepinephrine release from hippocampal slices,[2],majority
α-conotoxin ImI [reference compound],block of nicotine-stimulated dopamine release,[4],do not block; also recorded: no effect
α-conotoxin MII,block of nicotine-evoked [3H]-dopamine release,[4],significantly blocked
same,block of nicotine-stimulated [3H]-dopamine release,[4],33% and 34% and 44% and 50%
same,block of nicotine-stimulated [3H]-dopamine release (words),[4],nonsignificant trend toward block
same,block of nicotine-stimulated dopamine release,[4],blocks a fraction; also recorded: blocks a part but not all
same,effect on potassium-stimulated dopamine release,[5],no effect
same,block of nicotine-stimulated norepinephrine release,[6],significant block
same,block of nicotine-stimulated synaptosomal norepinephrine release,[6],do not block
same,IC50,[7],0.5 nM
same,affinities for other nAChR subunit combinations relative to α3β2,[8],two to four orders-of-magnitude higher
same,discrimination between the α3/β2 and α3/β4 interface,[8],four orders-of-magnitude
